# Assay results reported in patent US10722591B2, “Cleavable conjugates of TLR7/8 agonist compounds, methods for preparation, and uses thereof” (Dynavax Technologies Corporation, priority 2017, dated 2020).
# Experiments:
# [1] = tested on: interferon-related genes (TLR7-mediated gene induction); experiment: Gene expression in popliteal lymph nodes after single subcutaneous footpad injection; assay type: in vivo, BALB/c mice; details: 0.04 μg
# Protocol: (§1) Blood was drawn after 2 hours, serum samples were prepared and the IL-6, IL-12p40, and TNFα protein levels were measured by ELISA. Lower limit of quantification (LLOQ) for each of these assays was 31.3 pg/mL, and the dotted lines on graphs represent the LLOQ multiplied by serum dilution factor. Popliteal lymph nodes (draining node for the site of injection) were removed after 6 hours and stored in RNAlater (Qiagen, Hilden Del.) prior to tissue homogenization and isolation of RNA for gene expression analysis by TaqMan® using a StepOnePlus Real Time PCR system (Applied Biosystems, Foster City Calif.). Gene expression data are expressed as fold increase in gene induction relative to PBS control (mean±SEM).
# [2] = tested on: IL-6, IL-12p40, and TNFα protein levels; experiment: Serum cytokine levels by ELISA after single subcutaneous footpad injection; assay type: in vivo, BALB/c mice; details: 2 hours after footpad injection
# Protocol: as §1
# CD86 = experiment: APC maturation marker CD86 by flow cytometry after subcutaneous footpad injection; assay type: in vivo, BALB/c mice; details: 1.8 μg IMDQ molar equivalents, both hind footpads, 24 hours
# Protocol: Popliteal lymph nodes and spleens were harvested after 24 hours, and single cell suspensions were prepared for subsequent staining and analysis by flow cytometry using antibodies to cell surface markers to identify different APCs and lymphocyte cell populations.
# CT26 colon carcinoma [3] = experiment: Tumor growth inhibition in combination with anti-PD-1, two contralateral CT26 tumors (Example B6); assay type: in vivo, Balb/c mice; details: 500 ng IMDQ equivalent intratumorally in combination with anti-PD-1 250 μg intraperitoneally
# Protocol: All in vivo procedures were conducted in accordance with approved Institutional Animal Care and Use Committee (IACUC) protocols. The animals were housed in a facility that is accredited by the Association for Accreditation and Laboratory Animal Care (AALAC, Frederick, Md.). Wild-type female Balb/c mice (15-20 g) were obtained from Envigo (Hayward, Calif.) and acclimated for 2-3 days prior to use. On experimental day 0, mice were anesthetized with 1% isoflurane, and 80,000 CT26 tumor cells in 200 uL of RMPI-1640 culture media plus 2.5% fetal bovine serum were injected subcutaneously in both the right and left flanks. Tumors (left and right) were allowed to grow until day 9, when the right and left flank tumor sizes had reached approximately 35 mm^3, at which point mice were injected intraperitoneally with 250 μg of anti-PD-1 antibody formulated in PBS or a PBS vehicle control. The anti-PD-1 treatments were repeated on experimental days 12, 16, 20, 23, and 28. On experimental day 15, when the right (injected) and left (distal) flank tumors had reached approximately 100 mm^3, mice were randomized into treatment groups with 10 mice per group. […] Tumor sizes were measured twice weekly from days 15 through day 30 with calipers, with tumor volumes calculated using the formula: length, multiplied by width, multiplied by width, divided by 2.
# CT26 colon carcinoma [4] = experiment: Tumor growth inhibition, weekly intratumoral doses, CT26 tumor bearing mice (Example B4); assay type: in vivo, Balb/c mice; details: 500 ng IMDQ equivalent mass intratumorally on days 9, 16, 23 and 28; single flank tumor
# Protocol: Compound No. 64-70 is a non-cleavable variant. All in vivo procedures were conducted in accordance with approved Institutional Animal Care and Use Committee (IACUC) protocols. The animals were housed in a facility that is accredited by the Association for Accreditation and Laboratory Animal Care (AALAC, Frederick, Md.). Wild-type female Balb/c mice (15-20 g) were obtained from Envigo (Hayward, Calif.) and acclimated for 2-3 days prior to use.
# (§2) On experimental day 0, mice were anesthetized with 1% isoflurane and 80,000 CT26 tumor cells in 200 μL of RMPI-1640 culture media plus 2.5% FBS were injected subcutaneously in the right flank. Tumors were allowed to grow until they were ˜50 mm^3, at which point animals were assigned to groups, 8 mice per group, to begin treatment. […] Tumor sizes were measured twice weekly from day 7 through day 30 with calipers, with tumor volumes calculated using the following formula: length, multiplied by width, multiplied by width, divided by 2.
# TLR7 = biological target: T1, TLR7 (Homo sapiens, UniProt Q9NYK1); experiment: TLR7 in vitro potency; assay type: cell-based
# T1 sequence (Q9NYK1 27-1049): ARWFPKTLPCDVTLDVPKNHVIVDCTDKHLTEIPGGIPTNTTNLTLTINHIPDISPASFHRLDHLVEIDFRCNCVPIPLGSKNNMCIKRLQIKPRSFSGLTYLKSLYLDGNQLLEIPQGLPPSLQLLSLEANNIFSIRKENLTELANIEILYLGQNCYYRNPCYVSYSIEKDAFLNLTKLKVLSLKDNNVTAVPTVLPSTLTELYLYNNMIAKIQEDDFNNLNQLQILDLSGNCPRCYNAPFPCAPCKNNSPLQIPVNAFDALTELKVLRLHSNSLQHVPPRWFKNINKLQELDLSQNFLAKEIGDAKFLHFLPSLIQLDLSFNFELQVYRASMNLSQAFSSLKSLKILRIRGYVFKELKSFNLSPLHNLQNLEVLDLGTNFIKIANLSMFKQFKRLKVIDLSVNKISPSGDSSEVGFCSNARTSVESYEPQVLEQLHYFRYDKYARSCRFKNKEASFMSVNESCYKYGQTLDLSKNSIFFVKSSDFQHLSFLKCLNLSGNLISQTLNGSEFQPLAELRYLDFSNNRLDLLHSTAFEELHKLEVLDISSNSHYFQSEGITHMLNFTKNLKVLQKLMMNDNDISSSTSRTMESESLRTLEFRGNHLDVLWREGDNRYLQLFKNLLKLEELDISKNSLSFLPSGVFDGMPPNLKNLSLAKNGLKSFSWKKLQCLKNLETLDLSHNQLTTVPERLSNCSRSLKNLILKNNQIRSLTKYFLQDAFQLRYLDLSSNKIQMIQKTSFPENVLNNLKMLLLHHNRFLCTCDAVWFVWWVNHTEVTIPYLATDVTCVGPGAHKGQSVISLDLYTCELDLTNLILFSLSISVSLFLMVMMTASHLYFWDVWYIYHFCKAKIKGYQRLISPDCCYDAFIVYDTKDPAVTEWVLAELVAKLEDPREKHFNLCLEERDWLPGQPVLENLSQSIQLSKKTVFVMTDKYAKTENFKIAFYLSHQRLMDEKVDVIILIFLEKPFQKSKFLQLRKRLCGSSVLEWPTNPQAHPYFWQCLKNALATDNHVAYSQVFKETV
# CT26 colon carcinoma [5] = experiment: Tumor growth inhibition, weekly intratumoral doses, CT26 tumor bearing mice (Example B3); assay type: in vivo, Balb/c mice; details: intratumoral on days 8, 16, 23; 1 μg molar equivalent of IMDQ (64-53a, 64-54a) or 0.63 ug (64-10a); to day 27
# Protocol: The effect of weekly intratumoral doses of Compound No. 64-53a, Compound No. 64-54a, Compound No. 64-10a, or a PBS vehicle control on tumor growth inhibition was assessed in syngeneic CT26 colon carcinoma-bearing Balb/c mice. Compound No. 64-53a differs from Compound No. 64-53 in that it contains a monomethyl group adjacent to the disulfide cleavable linker rather than the disulfide variant. Compound No. 64-54a differs from Compound No. 64-54 in that it contains a (PEG)4 to the N-terminus of the peptide cleavable linker rather than a (PEG)12 variant. […] Compound No. 64-10a is the free amine (i.e., unconjugated) form of Compound No. 64-10, the structure of which is shown in Table 1. All in vivo procedures were conducted in accordance with approved Institutional Animal Care and Use Committee (IACUC) protocols. The animals were housed in a facility that is accredited by the Association for Accreditation and Laboratory Animal Care (AALAC, Frederick, Md.). […]
# as §2, with “On” for “On experimental”, “flank.” for “flank. Tumors were allowed to grow until they were ˜50 mm^3, at which point animals were assigned to groups, 8 mice per group, to begin treatment.”, “27” for “30”
compound,measurement,setting,value
"CCCCc1nc2c(N)nc3ccccc3c2n1Cc1ccc(CN)cc1 [IMDQ, 1-(4-aminomethylbenzyl)-2-butyl-1H-imidazo[4,5-c]quinolin-4-amine]",gene expression response in popliteal lymph nodes at the lowest dose,[1],induced gene expression
same,serum IL-12p40,[2]; 1 μg,levels above background
same,serum IL-6,[2]; 5 μg,elevated levels
same,serum IL-12p40,[2]; 5 μg,elevated levels
same,serum TNFα,[2]; 5 μg,elevated levels
same,expression level of APC maturation marker CD86 in popliteal lymph nodes,CD86,induced activation/maturation of cells
same,expression level of CD86 on APCs in the spleen,CD86,comparable
same,tumor growth control in the injected tumor,CT26 colon carcinoma [3],comparable improvements in tumor growth control over either agent administered individually
same,tumor growth control in the uninjected tumor,CT26 colon carcinoma [3],comparable improvements in tumor growth control over either agent administered individually
CCCCc1nc2c(N)nc3ccccc3c2n1Cc1ccc(CNC(=O)OCc2ccc(SCCNC(=O)CN=[N+]=[N-])cc2)cc1 [Compound No. 64-70],CT26 tumor growth inhibition,CT26 colon carcinoma [4],no CT26 tumor growth inhibition
"CCCCCCCCCCCCCC(=O)NCc1ccc(Cn2c(CCCC)nc3c(N)nc4ccccc4c32)cc1 [Compound No. 64-10a, N-(4-((4-amino-2-butyl-1H-imidazo[4,5-c]quinolin-1-yl)methyl)benzyl)tetradecanamide]",EC50,TLR7,2 nM
same,in vitro and in vivo TLR7 agonist potency relative to IMDQ,TLR7; data not shown,equal in vitro and in vivo TLR7 agonist potency to IMDQ
same,CT26 tumor growth control compared to the vehicle control,CT26 colon carcinoma [5],significant CT26 tumor growth control
